Where no end group is shown, it is not given here.
How the values were obtained:
[1] = test system: stromal keratocytes; test: Loss of stromal keratocytes after surgical keratectomy (in vivo confocal corneal tomography, keratocyte counts); set-up: species or system New Zealand White rabbits; settings: for Percent keratocyte reduction from baseline: 35 μl topical TID, 80 μM histatin-1 (+100 μM peptide 6 in combination), mean±SD
Description: Twenty-four New Zealand White rabbits, approximately 4-6 months old and weighing 2-3 kg were divided into 3 groups of 8 animals and dosed topically three times per day (TID) for 28 days with either 35 μl Phosphate Buffered Saline (PBS), 35 μl 80 μM histatin-1 (Hst-1), or 35 μl 80 μM histatin-1+100 μM peptide 6 (P6) combination following unilateral surgical keratectomy procedure.
(§1) Animals were administered buprenorphine (0.01-0.05 mg/kg, SC) for pain control just prior to the procedure. A second dose of buprenorphine (0.01-0.05 mg/kg, SC) was administered in the evening, and then administered on an as needed basis. Animals was induced for surgery with a ketamine/xylazine cocktail (50 mg/kg ketamine and 10 mg/kg xylazine IM); anesthesia was maintained with isoflurane delivered in oxygen through a mask as needed. Following induction of anesthesia, 5% betadine solution, on autoclaved sterile gauze, was used to clean the periocular (eyelids) area of the surgical eye. Betadine was then used to irrigate the ocular surface and conjunctival cul-de-sac, which was then thoroughly irrigated with sterile eyewash. One drop each of 0.5% proparacaine HCl and 10% phenylephrine HCl, was then applied to the ocular surface for ocular anesthesia and mydriasis, respectively. The rabbit was positioned under an operating microscope and an eyelid speculum was affixed. An adjustable, 8 mm corneal vacuum trephine (Moria Surgical, Antony, France) was used to create a central corneal defect of approximately 10-25% stromal depth (approximately 100 μm). The trephined section of the cornea was removed, and the wound left open. Immediately following surgery, a single dose of topical antibiotic (Neomycin Polymyxin B Sulfates Gramicidin ophthalmic solution) was applied.
(§2) The corneas of anesthetized animals were imaged with a Heidelberg Retinal Tomograph fitted with a Rostock Corneal Module (HRT III RCM). This compact ophthalmic device uses confocal scanning laser microscopy to provide high-resolution en-face images of cornea cells and structures, including keratocytes subpopulations and the corneal sub-basal nerve plexus. Central cornea confocal scans from the epithelium to the endothelium were done and optical stacks of 400 μm×400 μm and 2 μm thick sections were generated and electronically stored for analysis.
A sampling region of the stack of optical scans was selected that corresponded to approximately 150 μm above the endothelium. This was done by counting 75 images up from the endothelium and selecting 5 adjacent images to serve as replicates. Keratocytes presented as reflective distinct irregular shaped objects. […] An unpaired Student's T test was used to compare the histatin-1 and the histatin-1+peptide 6 groups; p<0.05 was considered statistically significant.

[2] = test system: corneal nerves; test: Corneal nerve regeneration after surgical anterior keratectomy (Tuj1 wholemount immunohistochemistry); assay type: in vivo, New Zealand White rabbits; settings: Day 28; 35 μl topical TID, 80 μM histatin-1 (+100 μM peptide 6); mean±SD
Description: Twelve New Zealand White rabbits, approximately 4-6 months old and weighing 2-3 kg were divided into 3 groups of 4 animals and dosed topically three times per day (TID) for 28 days with either 35 μl phosphate buffered saline (PBS), 35 μl 80 μM histatin-1 or 35 μl of 80 μM histatin-1+100 μM peptide 6 following a unilateral surgical keratectomy procedure.
Animals were administered buprenorphine (0.01-0.05 mg/kg, SC) for pain control just prior to the procedure. A second dose of buprenorphine (0.01-0.05 mg/kg, SC) was administered in the evening, and then administered on an as needed basis. Animals were induced for surgery with a ketamine/xylazine cocktail (50 mg/kg ketamine and 10 mg/kg xylazine IM); anesthesia was maintained with isoflurane delivered in oxygen through a mask as needed. Following induction of anesthesia, 5% betadine solution, on autoclaved sterile gauze, was used to clean the periocular (eyelids) area of the surgical eye. […]
While corneas were incubating in their final wash, slides with imaging spacers were prepared. A 0.36, 0.6 mm or combination of the two adhesive imaging spacers (Grace Biolabs cat #SA-S-3L; custom cut to 22×40 mm rectangle with an oblong window cut out) was adhered to a glass slide; spacer thickness was determined by corneal thickness measured on the day of necropsy for treated eyes; control corneas utilized a 0.36 mm spacer. […]

[3] = test system: corneal endothelial cells; test: Corneal endothelial cell density after surgical anterior keratectomy (corneal tomography); assay type: in vivo, New Zealand White rabbits; settings: 35 μl 80 μM topical TID; for Percent endothelial cell density reduction from baseline: mean±SD
Description: Sixteen New Zealand White rabbits, approximately 4-6 months old and weighing 2-3 kg were divided into 2 groups of 8 animals and dosed topically three times per day (TID) for 28 days with either 35 μl phosphate buffered saline (PBS) or 35 μl 80 μM histatin-1 following unilateral surgical keratectomy procedure.
as §1, with “Animals were” for “Animals was”, “The rabbits were” for “The rabbit was”
as §2, with “including corneal sub-basal nerve plexus,” for “including”, “endothelial cell layer.” for “sub-basal nerve plexus.”, “400×400” for “400 μm×400”
The optical slice with the endothelium layer having the best resolution and largest coverage was selected. Of the 16 animals in the study, only 14 animals had scans with usable endothelial cell layers at 1 or more time points, and a maximum of only 4 usable scans at any single time point. The HRT III cell counting software was used to adjust image contrast and brightness to enhance manual cell counting within a selected region of interest (ROI). ROIs were >0.005 mm^2. Number of cells within a ROI ranged from 118-287. Partial cells (>½) at the edges of the ROI were counted only on 2 sides at right angles. The software computed endothelial cell density as cells/mm^2 based on manual counts in the selected ROI. Data are presented as mean±standard deviation cells/mm^2. An unpaired Student's T test was used to compare the PBS and histatin-1 groups at each follow-up time point; p<0.05 was considered statistically significant.

[4] = test system: endothelial cells in human non-surgical cornea buttons; test: Corneal button preservation under stressed storage conditions (trypan blue staining); assay type: cell-based; settings: 1 μM in standard cornea storage media
Description: The effect of 1 μM histatin-1 formulated in Life4° C.™ or Optisol™ Corneal Storage Medium was assessed on the preservation of endothelial cells in 9 pairs of human non-surgical cornea buttons stored under stressed conditions. The tissues were individually stored in 20 mL Bausch & Lomb™ Cornea Tissue Viewing Chambers at room temperature (24±2° C.) for 6 to 14 days, preceded by storage at 4° C. for 3 days. All doners were White/Caucasian origin. The median age was 64 years and ranged from 14 to 73. The amount of time from the time of death to the preservation of the corneas ranged from 4 hours 15 mins to 20 hours 48 mins. Endothelial cell counts at the time of tissue harvest was 2222±240 cells/mm^2. Histatin-1 was added every other day to the right eye (OD) in a volume of 200 μL in an amount sufficient to maintain a concentration of 1 μM. Left eyes (OS) were given an equal volume of PBS. Endothelial cell viability was assessed by trypan blue staining as non-viable area expressed as a percentage of 80% of the central cornea. Briefly, cornea buttons were transferred from storage chambers to viewing wells (Barron Punch Cutting Block), endothelium side up, and 0.06% trypan blue in a volume sufficient to cover the endothelial layer limbus to limbus was applied and left for 90 secs, and then rinsed twice with PBS. […]

In the case of “DSHEKRHHGYRRKFHEKHHSHREFPFYGDYGSNYLYDN [histatin-1]”, the “Complete recovery of keratocytes by Day” value ([1]; 35 μl topical TID after keratectomy) is reported as ≤ 28 days, the “Percent keratocyte reduction from baseline” value (shortened to “Percent keratocyte reduction”) ([1]; Day 7) is reported as 40.2±3.3% and the “Percent keratocyte reduction” value ([1]; Day 10) is reported as 37.5±2.4%. For the same sequence, the “Percent keratocyte reduction” value ([1]; Day 14) was 32.7±15.3%, the “Percent keratocyte reduction” value ([1]; Day 21) was 26.5±6.0% and the “Percent keratocyte reduction” value ([1]; Day 28) was 2.7±13%. For the same sequence, the “Area of nerve regeneration” value [2] was 26.1±7 mm^2, the “Area of nerve regeneration as percent of initial 8 mm lesion area (50.3 mm^2)” value [2] was 51.9±14% and the “Recovery and apparent normalization of endothelial cell density starting by Day” value [3] was ≤ 10 days. For the same sequence, the “Percent endothelial cell density reduction from baseline” value ([3]; Day 7) was 15.1±2.8%, the “Percent endothelial cell density reduction from baseline” value ([3]; Day 10) was 1.1±9.1% and the “Percent endothelial cell density reduction from baseline” value ([3]; Day 14) was −0.2±5.9%. For the same sequence, the “Percent endothelial cell density reduction from baseline” value ([3]; Day 21) was 4.5±7.8%, the “Percent endothelial cell density reduction from baseline” value ([3]; Day 28) was 7.4±2.8% and the “Reduction of stained area in the endothelial area versus PBS” value [4] was 45%.

— US20250276038A1, “HISTATIN COMBINATIONS AND METHODS FOR TREATING OR INHIBITING CELL LOSS” (VISUS THERAPEUTICS, INC., priority 2021, published 2025)
